Test results as given in US5045533A, “Retinoic esters of antibiotics and pharmaceutical and cosmetic compositions containing them” (L'Oreal, priority 1986, dated 1991).
≈ marks a conversion by molar mass, not a printed value. Read-outs that look alike come from different tables or passages of the source.

Tests used:
[1] = tested on: P37 E⊕ (sensitive); assay: MIC by dilution method, P37 E⊕ (sensitive) strain; type: cell-based, propionibacterium acnes; settings: for MIC: Cutibacterium acnes; for activity on sensitive strains relative to the esters of the invention: P37 E⊕
From the text: (§1) The activity of retinoic esters of antibiotics namely of erythromycin A, lincomycin and clindamycin has been studied by the dilution method, so as to determine, the minimal inhibitory concentration (MIC), this method being described and employed by G. A. Denys et al, "Antimicrobial Agents and Chemotherapy" 1983) 23, 335-337 and J. J. Leyden et al, J. Am. Acad. Dermatol. (1983), 8, (1) 41-5, by using as the strain of propionibacterium acnes, the P37 strain furnished by Cunliffe and Holland.
(§2) (2) at 1 cm beyond the periphery of the zone of inhibition strains called P37 E⊕ are retained.
(§3) After isolation and culture, the P37 E⊕ and P37 E⊖ strains effectively show very different sensitivities to erythromycin as is illustrated by the following respective MIC values:
(§4) The Minimal Inhibitory Concentration (MIC) expressed in μg/ml of the tested retinoic esters of erythromycin A, lincomycin and clindamycin vis-a-vis the P37⊕ and P37⊖ strains is reported in the following tables

[2] = tested on: P37 E⊖ (resistant); assay: MIC by dilution method, P37 E⊖ (resistant) strain; type: cell-based, propionibacterium acnes; settings: for MIC: Cutibacterium acnes; for activity on resistant strains relative to the esters of the invention: P37 E⊖
From the text: as §1
(§5) (1) at the interior of the zone of inhibition strains called P37 E⊖ are retained because of their apparent resistance to erythromycin;
as §3, §4

[3] = tested on: Staph. Epi. 3; assay: MIC, Staph. Epi. 3 strain; type: cell-based; settings: Staphylococcus epidermidis; strain isolated from an acne patient; read-out: minimal inhibitory concentrations, Staph. Epi. 3
From the text: as §1
(§6) The "Staph. Epi. 3" strain is isolated from an acne patient whereas the "Staph. Epi. 6" strain is isolated from a non-acne patient. The isolation of these strains is carried out in accordance with the Williamson-Kligman method, ("A new method for the quantitative investigation of cutaneous bacteria", P. Williamson and A. Kligman, J. I. D., Vol. 45, No. 6, 1965). Decimal dilutions of the retained portions are effected and 0.1 ml of these dilutions is inoculated on a selective medium permitting isolation of staphylococcus.

[4] = tested on: Staph. Epi. 6; assay: MIC, Staph. Epi. 6 strain; type: cell-based; settings: Staphylococcus epidermidis; strain isolated from a non-acne patient; read-out: minimal inhibitory concentrations, Staph. Epi. 6
From the text: as §1, §6

[5] = tested on: P37 strain; assay: zone of inhibition of growth around disk in Petri dish; type: cell-based, propionibacterium acnes; settings: Cutibacterium acnes, 144 h; 50 μg erythromycin in DMSO on 9 mm disk; 6 days at 36° C., anaerobic; after 8 sub-cultures; read-out: zone of inhibition of the growth of the strain, total diameter
Experimental: On the other hand, after 8 successive sub-cultures in the same medium (RCM, Reinforced Clostridium Medium (oxoid) 19/20, DMSO […] by volume) so as to obtain a progressive stabilization of the strain to this medium, a progressive resistance to erythromycin is manifested in the following form.
After exposure of a standardized inoculum (DO=1.8 to […]) on gelose medium (RCM+ furazolidone) in a Petri dish, a 9 mm diameter disk is deposited at its center. On this disk, 50 μg of erythromycin (in solution in DMSO) are deposited.

[6] = tested on: P37; assay: IC 50 (Inhibitory Concentration at 50%), P37; type: cell-based, propionibacterium acnes; settings: Cutibacterium acnes, constant culture time, 50% of survivors
From the text: (§7) This phenomeon is confirmed by the study of the IC 50 (Inhibitory Concentration at 50%) which represents the concentration of erythromycin where, at a constant culture time, 50% of survivors among the population are found.

[7] = tested on: P37 E⊕; assay: IC 50 (Inhibitory Concentration at 50%), P37 E⊕; type: cell-based, propionibacterium acnes; settings: Cutibacterium acnes, constant culture time, 50% of survivors
From the text: as §2, §7

[8] = tested on: P37 E⊖; assay: IC 50 (Inhibitory Concentration at 50%), P37 E⊖; type: cell-based, propionibacterium acnes; settings: Cutibacterium acnes
From the text: as §5, §7

[9] = sensitive strain, retinoic ester table, read-out: Minimal Inhibitory Concentration (MIC), P37 E⊕ (sensitive)
[10] = read-out: Minimal Inhibitory Concentration (MIC), P37 E⊖ (resistant)

CCC[C@@H]1C[C@@H](C(=O)N[C@@H]([C@H]2O[C@H](SC)[C@H](O)[C@@H](O)[C@H]2O)[C@H](C)Cl)N(C)C1 [Clindamycin]
MIC [1, 9]: 1 µg/mL (≈ 2.35 µM)
MIC [2, 10]: 10 µg/mL (≈ 23.5 µM)
MIC [3]: 7 µg/mL (≈ 16.5 µM)
MIC [4]: 8 µg/mL (≈ 18.8 µM)

CC[C@H]1OC(=O)[C@H](C)[C@@H](O[C@H]2C[C@@](C)(OC)[C@@H](O)[C@H](C)O2)[C@H](C)[C@@H](O[C@@H]2O[C@H](C)C[C@H](N(C)C)[C@H]2O)[C@](C)(O)C[C@@H](C)C(=O)[C@H](C)[C@@H](O)[C@]1(C)O [Erythromycin A]
MIC ([1]; P37 E⊕ strain, strain characterisation table, read-out: MIC): 0.78 µg/mL (≈ 1.06 µM)
MIC [1, 9]: 1 µg/mL (≈ 1.36 µM)
MIC [2]: 50 µg/mL (≈ 68.1 µM)
MIC [2, 10]: > 50 µg/mL
zone of inhibition at 50 µg/disc [5]: 42 mm
IC50 [6]: 50 µg/mL (≈ 68.1 µM)
IC50 [7]: 5 µg/mL (≈ 6.81 µM)
IC50 [8]: 100 µg/mL (≈ 136 µM)
MIC [3]: 13 µg/mL (≈ 17.7 µM)
MIC [4]: 30 µg/mL (≈ 40.9 µM)

CCC[C@@H]1C[C@@H](C(=O)N[C@@H]([C@H]2O[C@H](SC)[C@H](O)[C@@H](O)[C@H]2O)[C@@H](C)O)N(C)C1 [Lincomycin]
MIC [1, 9]: 13 µg/mL (≈ 32 µM)
MIC [2, 10]: 66 µg/mL (≈ 162 µM)
MIC [3]: 14 µg/mL (≈ 34.4 µM)
MIC [4]: 20 µg/mL (≈ 49.2 µM)

CCCCCCCC/C=C\CCCCCCCC(=O)O[C@H]1[C@H](O[C@@H]2[C@@H](C)[C@H](O[C@H]3C[C@@](C)(OC)[C@@H](O)[C@H](C)O3)[C@@H](C)C(=O)O[C@H](CC)[C@@](C)(O)[C@H](O)[C@@H](C)C(=O)[C@H](C)C[C@@]2(C)O)O[C@H](C)C[C@@H]1N(C)C [O-oleoyl-2'-erythromycin A (Z-9)]
MIC [1, 9]: 50 µg/mL (≈ 50.1 µM)
activity on sensitive strains relative to the esters of the invention [1]: clearly less active
MIC [2, 10]: 100 µg/mL (≈ 100 µM)
activity on resistant strains relative to the esters of the invention [2]: clearly less active

CCCCCCCC/C=C\CCCCCCCC(=O)O[C@H]1[C@@H](O)[C@@H]([C@H](NC(=O)[C@@H]2C[C@@H](CCC)CN2C)[C@H](C)Cl)O[C@H](SC)[C@@H]1O [O-oleoyl-3-clindomycin]
MIC [1, 9]: 54 µg/mL (≈ 78.3 µM)
activity on sensitive strains relative to the esters of the invention [1]: clearly less active
MIC [2, 10]: > 138 µg/mL
activity on resistant strains relative to the esters of the invention [2]: clearly less active

CCCCCCCC/C=C\CCCCCCCC(=O)O[C@H]1[C@@H](O)[C@@H]([C@H](NC(=O)[C@@H]2C[C@@H](CCC)CN2C)[C@@H](C)O)O[C@H](SC)[C@@H]1O [O-oleoyl-3-lincomycin]
MIC [1, 9]: 19 µg/mL (≈ 28.3 µM)
MIC [2, 10]: 42 µg/mL (≈ 62.6 µM)

CC[C@H]1OC(=O)[C@H](C)[C@@H](O[C@H]2C[C@@](C)(OC)[C@@H](O)[C@H](C)O2)[C@H](C)[C@@H](O[C@@H]2O[C@H](C)C[C@H](N(C)C)[C@H]2OC(=O)\C=C(C)/C=C/C=C(C)/C=C/C2=C(C)CCCC2(C)C)[C@](C)(O)C[C@@H](C)C(=O)[C@H](C)[C@@H](O)[C@]1(C)O [O-retinoyl (13-cis)-2'-erythromycin A]
MIC [1, 9]: 20 µg/mL (≈ 19.7 µM)
MIC [2, 10]: 34 µg/mL (≈ 33.5 µM)
MIC [3]: 110 µg/mL (≈ 108 µM)
MIC [4]: 110 µg/mL (≈ 108 µM)

CCC[C@@H]1C[C@@H](C(=O)N[C@@H]([C@H]2O[C@H](SC)[C@H](O)[C@@H](OC(=O)\C=C(C)/C=C/C=C(C)/C=C/C3=C(C)CCCC3(C)C)[C@H]2O)[C@H](C)Cl)N(C)C1 [O-retinoyl (13-cis)-3-clindamycin]
MIC [1, 9]: 1.5 µg/mL (≈ 2.12 µM)
MIC [2, 10]: 35 µg/mL (≈ 49.5 µM)
MIC [3]: 113 µg/mL (≈ 160 µM)
MIC [4]: 113 µg/mL (≈ 160 µM)

CCC[C@@H]1C[C@@H](C(=O)N[C@@H]([C@H]2O[C@H](SC)[C@H](O)[C@@H](OC(=O)\C=C(C)/C=C/C=C(C)/C=C/C3=C(C)CCCC3(C)C)[C@H]2O)[C@@H](C)O)N(C)C1 [O-retinoyl (13-cis)-3-lincomycin]
MIC [1, 9]: 17.5 µg/mL (≈ 25.4 µM)
MIC [2, 10]: 25 µg/mL (≈ 36.3 µM)
MIC [3]: 100 µg/mL (≈ 145 µM)
MIC [4]: 100 µg/mL (≈ 145 µM)

CC[C@H]1OC(=O)[C@H](C)[C@@H](O[C@H]2C[C@@](C)(OC)[C@@H](O)[C@H](C)O2)[C@H](C)[C@@H](O[C@@H]2O[C@H](C)C[C@H](N(C)C)[C@H]2OC(=O)/C=C(C)/C=C/C=C(C)/C=C/C2=C(C)CCCC2(C)C)[C@](C)(O)C[C@@H](C)C(=O)[C@H](C)[C@@H](O)[C@]1(C)O [O-retinoyl (all trans)-2'-erythromycin A]
MIC [1, 9]: 14 µg/mL (≈ 13.8 µM)
MIC [2, 10]: 13 µg/mL (≈ 12.8 µM)
MIC [3]: 75 µg/mL (≈ 73.8 µM)
MIC [4]: 80 µg/mL (≈ 78.7 µM)

CCC[C@@H]1C[C@@H](C(=O)N[C@@H]([C@H]2O[C@H](SC)[C@H](O)[C@@H](OC(=O)/C=C(C)/C=C/C=C(C)/C=C/C3=C(C)CCCC3(C)C)[C@H]2O)[C@H](C)Cl)N(C)C1 [O-retinoyl (all-trans)-3-clindamycin, O-retinoyl (all trans)-3-clindamycin]
MIC [1, 9]: 18 µg/mL (≈ 25.4 µM)
MIC [2, 10]: 50 µg/mL (≈ 70.7 µM)
